Test results: US20180263985A1, “MODULATORS OF TOLL-LIKE RECEPTORS FOR THE TREATMENT OF HIV” (Gilead Sciences, Inc., priority 2015, published 2018)

Test system: PBMC cultures from HIV-1 infected subjects on cART
Experiment: Induced cytokines and chemokines in PBMC cultures, multiplexed xMAP Luminex, geometric mean values
Type: cell-based, human
Conditions: for GRO-α Fold / Granzyme B Fold / I-TAC Fold / IFN-α Fold / IFN-γ Fold / IL-1RA Fold / IL-1β Fold / IL-6 Fold / IL-8 Fold / IL-10 Fold / IL-18 Fold / IL-23 Fold / IP-10 Fold / MCP-1 Fold / MIP-1α Fold / MIP-1β Fold / MIP-3α Fold / MMP-1 Fold / TNF-α Fold / IL-12p70 Fold: day 2, 4 subjects
Protocol: To further characterize the immune modulatory effect of TLR8 agonists in cells from HIV-infected subjects, the production of secreted cytokines and chemokines was measured in PBMCs from 4 HIV-infected subjects on suppressive cART (anonymized participant IDs 180-183). PBMCs were purified, as described in Example 121, and immediately added to tissue culture plates pre-equilibrated at 37° C. with media containing DMSO (vehicle control) or with the TLR8 modulating compound Example 15 at concentrations ranging from 1.0 nM to 10.0 μM. On day 2 after treatment, cell-free culture supernatants were collected and frozen at −80 C for subsequent analysis. Frozen supernatants were thawed at room temperature, and the indicated cytokines and chemokines were quantified with a custom multiplexed xMAP Luminex® assay following the manufacturer's instructions (Thermo Fisher Scientific Inc., Grand Island, N.Y., custom-designed kit).
Data are expressed as geometric mean cytokine values (pg/ml) obtained from 4 subjects' PBMCs. Geometric mean fold-activation from three independent incubation samples for each condition. Fold (fold-activation) is calculated as a ratio of the concentration of cytokine detected in cell culture supernatants from agonist treated samples relative to DMSO treated samples

[1] = 1.0 nM to 10.0 μM, not induced >2-fold

CCCC[C@H](CO)Nc1nc(N)nc2cccnc12 [Example 15]
IFN-ω induction compared to DMSO control [1]: ≤ 2 fold | IL-2 induction compared to DMSO control [1]: ≤ 2 fold | IL-4 induction compared to DMSO control [1]: ≤ 2 fold | IL-5 induction compared to DMSO control [1]: ≤ 2 fold | IL-7 induction compared to DMSO control [1]: ≤ 2 fold | IL-15 induction compared to DMSO control [1]: ≤ 2 fold | IL-17A induction compared to DMSO control [1]: ≤ 2 fold | IL-21 induction compared to DMSO control [1]: ≤ 2 fold | IL-27 induction compared to DMSO control [1]: ≤ 2 fold | IL-29 induction compared to DMSO control [1]: ≤ 2 fold | GRO-α Fold (1 nM vs DMSO): 1 fold | Granzyme B Fold (1 nM vs DMSO): <1 fold | I-TAC Fold (1 nM vs DMSO): 2 fold | IFN-α Fold (1 nM vs DMSO): 2 fold | IFN-γ Fold (1 nM vs DMSO): 2 fold | IL-1RA Fold (1 nM vs DMSO): 3 fold | IL-1β Fold (1 nM vs DMSO): 2 fold | IL-6 Fold (1 nM vs DMSO): 1 fold | IL-8 Fold (1 nM vs DMSO): 2 fold | IL-10 Fold (1 nM vs DMSO): 1 fold | IL-18 Fold (1 nM vs DMSO): 1 fold | IL-23 Fold (1 nM vs DMSO): 2 fold | IP-10 Fold (1 nM vs DMSO): 3 fold | MCP-1 Fold (1 nM vs DMSO): 3 fold | MIP-1α Fold (1 nM vs DMSO): 5 fold | MIP-1β Fold (1 nM vs DMSO): 2 fold | MIP-3α Fold (1 nM vs DMSO): 1 fold | MMP-1 Fold (1 nM vs DMSO): 1 fold | GRO-α Fold (10 nM vs DMSO): 1 fold | Granzyme B Fold (10 nM vs DMSO): <1 fold | I-TAC Fold (10 nM vs DMSO): 1 fold | IFN-α Fold (10 nM vs DMSO): 2 fold | IFN-γ Fold (10 nM vs DMSO): 2 fold | IL-1RA Fold (10 nM vs DMSO): 1 fold | IL-1β Fold (10 nM vs DMSO): 1 fold | IL-6 Fold (10 nM vs DMSO): 1 fold | IL-8 Fold (10 nM vs DMSO): 1 fold | IL-10 Fold (10 nM vs DMSO): 1 fold | IL-18 Fold (10 nM vs DMSO): 2 fold | IL-23 Fold (10 nM vs DMSO): 1 fold | IP-10 Fold (10 nM vs DMSO): 1 fold | MCP-1 Fold (10 nM vs DMSO): 1 fold | MIP-1α Fold (10 nM vs DMSO): 1 fold | MIP-1β Fold (10 nM vs DMSO): 1 fold | MIP-3α Fold (10 nM vs DMSO): 1 fold | MMP-1 Fold (10 nM vs DMSO): 1 fold | TNF-α Fold (10 nM vs DMSO): 2 fold | GRO-α Fold (100 nM vs DMSO): 20 fold | Granzyme B Fold (100 nM vs DMSO): <1 fold | I-TAC Fold (100 nM vs DMSO): 1 fold | IFN-α Fold (100 nM vs DMSO): 1 fold | IFN-γ Fold (100 nM vs DMSO): 2 fold | IL-1RA Fold (100 nM vs DMSO): 12 fold | IL-1β Fold (100 nM vs DMSO): 45 fold | IL-6 Fold (100 nM vs DMSO): 57 fold | IL-8 Fold (100 nM vs DMSO): 8 fold | IL-10 Fold (100 nM vs DMSO): 145 fold | IL-12p70 Fold (100 nM vs DMSO): 2 fold | IL-18 Fold (100 nM vs DMSO): 1 fold | IL-23 Fold (100 nM vs DMSO): 2 fold | IP-10 Fold (100 nM vs DMSO): 1 fold | MCP-1 Fold (100 nM vs DMSO): 33 fold | MIP-1α Fold (100 nM vs DMSO): 3 fold | MIP-1β Fold (100 nM vs DMSO): 1 fold | MIP-3α Fold (100 nM vs DMSO): 1 fold | MMP-1 Fold (100 nM vs DMSO): 2 fold | TNF-α Fold (100 nM vs DMSO): 6 fold | GRO-α Fold (1000 nM vs DMSO): 18 fold | Granzyme B Fold (1000 nM vs DMSO): 4 fold | I-TAC Fold (1000 nM vs DMSO): 2 fold | IFN-α Fold (1000 nM vs DMSO): 3 fold | IFN-γ Fold (1000 nM vs DMSO): 228 fold | IL-1RA Fold (1000 nM vs DMSO): 46 fold | IL-1β Fold (1000 nM vs DMSO): 1578 fold | IL-6 Fold (1000 nM vs DMSO): 290 fold | IL-8 Fold (1000 nM vs DMSO): 5 fold | IL-10 Fold (1000 nM vs DMSO): 219 fold | IL-12p70 Fold (1000 nM vs DMSO): 175 fold | IL-18 Fold (1000 nM vs DMSO): 11 fold | IL-23 Fold (1000 nM vs DMSO): 8 fold | IP-10 Fold (1000 nM vs DMSO): 3 fold | MCP-1 Fold (1000 nM vs DMSO): 22 fold | MIP-1α Fold (1000 nM vs DMSO): 374 fold | MIP-1β Fold (1000 nM vs DMSO): 340 fold | MIP-3α Fold (1000 nM vs DMSO): 42 fold | MMP-1 Fold (1000 nM vs DMSO): 3 fold | TNF-α Fold (1000 nM vs DMSO): 1661 fold | GRO-α Fold (3000 nM vs DMSO): 18 fold | Granzyme B Fold (3000 nM vs DMSO): 4 fold | I-TAC Fold (3000 nM vs DMSO): 2 fold | IFN-α Fold (3000 nM vs DMSO): 3 fold | IFN-γ Fold (3000 nM vs DMSO): 143 fold | IL-1RA Fold (3000 nM vs DMSO): 25 fold | IL-1β Fold (3000 nM vs DMSO): 1767 fold | IL-6 Fold (3000 nM vs DMSO): 195 fold | IL-8 Fold (3000 nM vs DMSO): 4 fold | IL-10 Fold (3000 nM vs DMSO): 279 fold | IL-12p70 Fold (3000 nM vs DMSO): 127 fold | IL-18 Fold (3000 nM vs DMSO): 18 fold | IL-23 Fold (3000 nM vs DMSO): 19 fold | IP-10 Fold (3000 nM vs DMSO): 3 fold | MCP-1 Fold (3000 nM vs DMSO): 25 fold | MIP-1α Fold (3000 nM vs DMSO): 421 fold | MIP-1β Fold (3000 nM vs DMSO): 240 fold | MIP-3α Fold (3000 nM vs DMSO): 82 fold | MMP-1 Fold (3000 nM vs DMSO): 3 fold | TNF-α Fold (3000 nM vs DMSO): 3051 fold | GRO-α Fold (10000 nM vs DMSO): 19 fold | Granzyme B Fold (10000 nM vs DMSO): 3 fold | I-TAC Fold (10000 nM vs DMSO): 1 fold | IFN-α Fold (10000 nM vs DMSO): 2 fold | IFN-γ Fold (10000 nM vs DMSO): 59 fold | IL-1RA Fold (10000 nM vs DMSO): 25 fold | IL-1β Fold (10000 nM vs DMSO): 2204 fold | IL-6 Fold (10000 nM vs DMSO): 241 fold | IL-8 Fold (10000 nM vs DMSO): 4 fold | IL-10 Fold (10000 nM vs DMSO): 304 fold | IL-12p70 Fold (10000 nM vs DMSO): 38 fold | IL-18 Fold (10000 nM vs DMSO): 13 fold | IL-23 Fold (10000 nM vs DMSO): 16 fold | IP-10 Fold (10000 nM vs DMSO): 2 fold | MCP-1 Fold (10000 nM vs DMSO): 27 fold | MIP-1α Fold (10000 nM vs DMSO): 487 fold | MIP-1β Fold (10000 nM vs DMSO): 196 fold | MIP-3α Fold (10000 nM vs DMSO): 65 fold | MMP-1 Fold (10000 nM vs DMSO): 8 fold | TNF-α Fold (10000 nM vs DMSO): 1096 fold
